Measured values reported in patent US12522594B2, “2-heteroaryl-3-oxo-2,3-dihydropyridazine-4-carboxamides for the treatment of cancer” (Deutsches Krebsforschungszentrum, priority 2017, dated 2026).

How the values were obtained:
Assay type in all cases: cell-based
AHR [1] = target: T1, AHR (Homo sapiens, UniProt P35869); experiment: In vitro assay 1: antagonism in human cell line (transactivation assay, U87 cells prestimulated with kynurenic acid, DRE firefly luciferase reporter); design: host or cells: U87 glioblastoma cells, stably transfected with DRE firefly luciferase and renilla reporter constructs; details: 150 uM kynurenic acid, 20 hours, read-out: Assay 1: AHR-luc Hum Antagonism IC50
T1 sequence (P35869 11-848): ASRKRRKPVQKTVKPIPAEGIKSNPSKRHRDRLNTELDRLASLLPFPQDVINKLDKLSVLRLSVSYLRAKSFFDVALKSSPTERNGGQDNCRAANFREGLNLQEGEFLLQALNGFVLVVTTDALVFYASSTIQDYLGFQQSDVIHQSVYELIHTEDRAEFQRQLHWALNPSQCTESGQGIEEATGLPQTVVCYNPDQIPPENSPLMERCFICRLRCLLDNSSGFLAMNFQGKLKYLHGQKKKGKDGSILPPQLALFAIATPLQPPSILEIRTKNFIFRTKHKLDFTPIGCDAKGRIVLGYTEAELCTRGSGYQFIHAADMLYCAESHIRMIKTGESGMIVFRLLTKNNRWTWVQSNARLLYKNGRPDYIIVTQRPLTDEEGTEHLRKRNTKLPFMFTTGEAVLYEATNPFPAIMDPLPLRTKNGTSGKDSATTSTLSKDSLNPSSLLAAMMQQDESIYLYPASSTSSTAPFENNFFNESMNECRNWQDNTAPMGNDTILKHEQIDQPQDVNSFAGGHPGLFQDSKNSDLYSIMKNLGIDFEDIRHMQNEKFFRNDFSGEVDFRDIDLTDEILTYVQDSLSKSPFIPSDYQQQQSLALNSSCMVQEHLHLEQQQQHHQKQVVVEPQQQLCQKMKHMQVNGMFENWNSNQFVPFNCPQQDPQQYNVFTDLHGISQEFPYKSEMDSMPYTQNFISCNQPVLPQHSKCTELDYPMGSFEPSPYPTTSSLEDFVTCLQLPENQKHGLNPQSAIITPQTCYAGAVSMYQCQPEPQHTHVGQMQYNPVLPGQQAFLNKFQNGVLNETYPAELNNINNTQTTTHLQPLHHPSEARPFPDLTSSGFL
Outline: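 Antagonism measured after kynurenic acid prestimulation in U87 cells that express AHR endogenously and stably harbor a firefly luciferase gene under DRE control plus a constitutive renilla construct. Positive and negative controls served for normalization.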

AHR [2] = target: T1, AHR; experiment: In vitro assay 3: AHR-regulated CYP1A1 expression in human cell line (U937, qPCR, KA stimulation); details: U937 cells, 200 uM KA, 6 hours, CYP1A1 expression by qPCR; read-out: Assay 3: Hum CYP1A1 Antagonism IC50
Procedure: In Vitro Assay 3: AHR-Regulated CYP1A1 Expression in Human Cell Line
To assess the AHR inhibitory activity of the substances described in this application, the ability thereof to antagonise ligand-induced AHR gene regulation in a dose-dependent manner was quantified. For this purpose, quantitative PCR analysis was used to determine expression of the AHR-regulated gene CYP1A1 in a human monocytic U937 cell line upon stimulation with 200 uM KA in the presence and absence of AHR inhibitor. […] CYP1A1 expression was induced with 200 uM KA (positive control) in the presence or absence of the substances for 6 hours. Human U937 cells were typically incubated with eight different concentrations of the substances (1 nM, 3 nM, 10 nM, 30 nM, 100 nM, 300 nM, 1 uM and 3 uM) and analyzed in duplicate on the same microtitre plate. […] Unstimulated cells were used as the negative control. Taqman probes for human CYP1A1 (Hs01054797_g1) and human HPRT (Hs02800695_m1) were used to analyze fold expression of CYP1A1 of HPRT. Quantitation was performed on a Taqman SDS7900HT.

AHR [3] = target: T1, AHR; experiment: In vitro assay 2: agonism in human cell line (transactivation assay, U87 cells, DRE firefly luciferase reporter); design: host or cells: U87 glioblastoma cells, stably transfected with DRE firefly luciferase and renilla reporter constructs; details: no kynurenic acid, 20 hours, read-out: Assay 2: AHR-luc Hum Agonism IC50
Outline: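 Agonist readout: DRE firefly luciferase, with constitutive renilla reporter, in stably transfected U87 cells expressing AHR endogenously. Normalization used positive control (300 uM kynurenic acid) and negative control.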

SMILES | IC50 (AHR [1]) [nM] | IC50 (AHR [2]) [nM] | IC50 (AHR [3]) [µM]
Cn1cc(-n2nc(-c3ccc(Cl)cc3)cc(C(=O)N[C@@H]3COC[C@@H]3O)c2=O)cn1 (single isomer, unassigned; enantiomer 2) [Example 45, 6-(4-Chlorophenyl)-N-[(cis)-4-hydroxytetrahydrofuran-3-yl]-2-(1-methyl-1H-pyrazol-4-yl)-3-oxo-2,3-dihydropyridazine-4-carboxamide, Enantiomer 2] | 41.5 | 83.5 | > 20
Cc1ccc(-c2cc(C(=O)NC(CO)C(C)C)c(=O)n(-c3cnn(C)c3)n2)cc1 (stereo not drawn) [Example 1, N-(1-Hydroxy-3-methylbutan-2-yl)-6-(4-methylphenyl)-2-(1-methyl-1H-pyrazol-4-yl)-3-oxo-2,3-dihydropyridazine-4-carboxamide] | 7.38 | 4.3 | > 20
Cc1ccc(-c2cc(C(=O)NCC(O)C(F)(F)F)c(=O)n(-c3cnn(C)c3)n2)cc1 (stereo not drawn) [Example 10, 6-(4-Methylphenyl)-2-(1-methyl-1H-pyrazol-4-yl)-3-oxo-N-(3,3,3-trifluoro-2-hydroxypropyl)-2,3-dihydropyridazine-4-carboxamide] | 4.25 | 10.2 | > 20
Cn1cc(-n2nc(-c3ccc(Cl)cc3)cc(C(=O)NCC(C)(C)O)c2=O)cn1 [Example 32, 6-(4-Chlorophenyl)-N-(2-hydroxy-2-methylpropyl)-2-(1-methyl-1H-pyrazol-4-yl)-3-oxo-2,3-dihydropyridazine-4-carboxamide] | 35.6 | 21.9 | > 20
Cn1cc(-n2nc(-c3ccc(Cl)cc3)cc(C(=O)N[C@H](CO)C(F)(F)F)c2=O)cn1 [Example 35, (+)-6-(4-Chlorophenyl)-2-(1-methyl-1H-pyrazol-4-yl)-3-oxo-N-[(2R)-1,1,1-trifluoro-3-hydroxypropan-2-yl]-2,3-dihydropyridazine-4-carboxamide] | 1.5 | 41 | > 20
Cn1cc(-n2nc(-c3ccc(C(F)(F)F)cc3)cc(C(=O)NC[C@H](O)C(F)(F)F)c2=O)cn1 [Example 37, 2-(1-Methyl-1H-pyrazol-4-yl)-3-oxo-N-[(2S)-3,3,3-trifluoro-2-hydroxypropyl]-6-[4-(trifluoromethyl)phenyl]-2,3-dihydropyridazine-4-carboxamide] | 2.64 | 0.423 | > 20
C[C@H](CO)NC(=O)c1cc(-c2ccc(C(F)(F)F)cc2)nn(-c2cnn(C)c2)c1=O [Example 38, (−)-N-[(2R)-1-Hydroxypropan-2-yl]-2-(1-methyl-1H-pyrazol-4-yl)-3-oxo-6-[4-(trifluoromethyl)phenyl]-2,3-dihydropyridazine-4-carboxamide] | 34.3 | 36.2 | > 20
C[C@@H](CO)NC(=O)c1cc(-c2ccc(C(F)(F)F)cc2)nn(-c2cnn(C)c2)c1=O [Example 39, (+)-N-[(2S)-1-Hydroxypropan-2-yl]-2-(1-methyl-1H-pyrazol-4-yl)-3-oxo-6-[4-(trifluoromethyl)phenyl]-2,3-dihydropyridazine-4-carboxamide] | 2.08 | 3.39 | > 20
Cn1cc(-n2nc(-c3ccc(OC(F)(F)F)cc3)cc(C(=O)N[C@H]3CCCC[C@H]3O)c2=O)cn1 [Example 46, N-[(1S,2R)-2-Hydroxycyclohexyl]-2-(1-methyl-1H-pyrazol-4-yl)-3-oxo-6-[4-(trifluoromethoxy)phenyl]-2,3-dihydropyridazine-4-carboxamide] | 1.48 | 1.36 | > 20
Cn1cc(-n2nc(-c3ccc(Cl)cc3)cc(C(=O)N[C@H]3CCC[C@@H]3O)c2=O)cn1 [Example 49, 6-(4-Chlorophenyl)-N-[(1S,2S)-2-hydroxycyclopentyl]-2-(1-methyl-1H-pyrazol-4-yl)-3-oxo-2,3-dihydropyridazine-4-carboxamide] | 6.5 | 7.55 | > 20
Cn1cc(-n2nc(-c3ccc(Cl)cc3)cc(C(=O)N[C@H]3CCC[C@H]3O)c2=O)cn1 [Example 50, 6-(4-Chlorophenyl)-N-[(1S,2R)-2-hydroxycyclopentyl]-2-(1-methyl-1H-pyrazol-4-yl)-3-oxo-2,3-dihydropyridazine-4-carboxamide] | 8.39 | 6.74 | > 20
C[C@@H](CO)NC(=O)c1cc(-c2ccc(OC(F)(F)F)cc2)nn(-c2cnn(C)c2)c1=O [Example 53, N-[(2S)-1-Hydroxypropan-2-yl]-2-(1-methyl-1H-pyrazol-4-yl)-3-oxo-6-[4-(trifluoromethoxy)phenyl]-2,3-dihydropyridazine-4-carboxamide] | 11.6 | 11.1 | > 20

Further lines, results first:

IC50 (AHR [1]) [nM] | IC50 (AHR [2]) [nM] | IC50 (AHR [3]) [µM] | SMILES
57 | 97.9 | > 20 | O=C(N[C@H]1COC[C@H]1O)c1cc(-c2ccc(OC(F)(F)F)cc2)nn(-c2cccnc2)c1=O (single isomer, unassigned; enantiomer 2) [Example 159, N-[(cis)-4-Hydroxytetrahydrofuran-3-yl]-3-oxo-2-(pyridin-3-yl)-6-[4-(trifluoromethoxy)phenyl]-2,3-dihydropyridazine-4-carboxamide, Enantiomer 2]
27.3 | 37.3 | > 20 | O=C(N[C@H]1COC[C@@H]1O)c1cc(-c2ccc(OC(F)(F)F)cc2)nn(-c2cccnc2)c1=O (single isomer, unassigned; enantiomer 2) [Example 162, N-[(trans)-4-Hydroxytetrahydrofuran-3-yl]-3-oxo-2-(pyridin-3-yl)-6-[4-(trifluoromethoxy)phenyl]-2,3-dihydropyridazine-4-carboxamide, Enantiomer 2]
57.3 | 22.4 | > 20 | O=C(N[C@H]1COC[C@@H]1O)c1cc(-c2ccc(Cl)cc2)nn(-c2cccnc2)c1=O (single isomer, unassigned; enantiomer 2) [Example 170, 6-(4-Chlorophenyl)-N-[(trans)-4-hydroxytetrahydrofuran-3-yl]-3-oxo-2-(pyridin-3-yl)-2,3-dihydropyridazine-4-carboxamide, Enantiomer 2]
18.6 | 10.8 | > 20 | C[C@@H](CO)NC(=O)c1cc(-c2ccc(C(F)F)cc2)nn(-c2cnn(C)c2)c1=O [Example 58, 6-[4-(Difluoromethyl)phenyl]-N-[(2S)-1-hydroxypropan-2-yl]-2-(1-methyl-1H-pyrazol-4-yl)-3-oxo-2,3-dihydropyridazine-4-carboxamide]
28.4 | 38.9 | > 20 | Cn1cc(-n2nc(-c3ccc(Cl)cc3)cc(C(=O)N[C@H]3COCC[C@H]3O)c2=O)cn1 [Example 61, 1,5-Anhydro-2-({[6-(4-chlorophenyl)-2-(1-methyl-1H-pyrazol-4-yl)-3-oxo-2,3-dihydropyridazin-4-yl]carbonyl}amino)-2,4-dideoxy-D-erythro-pentitol]
29.5 | 19.1 | > 20 | Cn1cc(-n2nc(-c3ccc(C(F)F)cc3)cc(C(=O)NCC(C)(C)O)c2=O)cn1 [Example 62, 6-[4-(Difluoromethyl)phenyl]-N-(2-hydroxy-2-methylpropyl)-2-(1-methyl-1H-pyrazol-4-yl)-3-oxo-2,3-dihydropyridazine-4-carboxamide]
